In patent US9889078B2, “Skin and/or hair whitening mixture” (Symrise AG, priority 2013, dated 2018):

System: human full-thickness skin explants
Experiment: ex-vivo study of lightening efficacy (melanin content) in human full-thickness skin explants
Format: cell-based
Conditions: for Melanin reduction: Reduction vs. Standard (%): treatments versus placebo at day 6, phototype tanned
Description: To evaluate the lightening efficacy of the test products an ex-vivo study using human full-thickness skin explants was performed. […] 1,2-Pentandiol was added to some of the blends to improve the penetration of the active ingredients into the skin layers.

Row | Structure (SMILES) | Melanin reduction: Reduction vs. Standard (%) | further results
1 | CC(C)=CCC[C@@](C)(O)[C@@H]1CC=C(C)CC1 [Bisabolol] | – | efficacy (melanin decrease) (0.08% Bisabolol alone, ex vivo model, tanned phototype): did not have any efficacy
2 | CC(c1ccccc1)c1ccc(O)cc1O (centres unmarked) [Example C2, Phenylethyl Resorcinol] | −13% | –
3 | CC(c1ccccc1)c1ccc(O)cc1O (centres unmarked) [Example C3, Phenylethyl Resorcinol] | −21% | –
4 | CC(C)=CCC[C@](C)(O)C1CC=C(C)CC1 (some centres unmarked) [Example C4, Bisabolol] | 0% | –
5 | CC(c1ccccc1)c1ccc(O)cc1O (centres unmarked) [Pheneylethyl Resorcinol, Phenylethyl Resorcinol] | – | melanin decrease (0.4% Phenylethyl Resorcinol alone, tanned phototype): 21%
